Measured values published in patent publication US7572831B2, “Composition containing chalcone” (Angiolab, Inc., priority 2002, dated 2009).

How the values were obtained:
MMP-13 = target: T1, MMP-13 (Homo sapiens, UniProt P45452); test: MMP-13 spectrofluorometric enzyme activity assay; type: biochemical; settings: 50 μM compound
T1 construct: made in house; host or cells: Sf21 insect cells, baculovirus (pBlueBac4.5)
Protocol: (§1) MMP-1, MMP-2, MMP-9 and MMP-13 were cloned and prepared from insect cells (Sf21 insect cell) by using a Baculovirus system.
(§2) Each cDNA for corresponding MMPs was cloned to a pBlueBac4.5 transfer vector (Invitrogen, Cat no. V1995-20), and then transfected to Sf21 cells with a Bac-N-Blue Transfection Kit (Invitrogen, Cat no. K855-01). Sf21 cells were incubated with a TNM-FH (Sigma, St. Louis, Mo., U.S.A) media containing 10% fetal bovine serum at 27° C., then harvested and re-suspended at a concentration of 10^7 cell/Ml. The cell suspension was incubated with a virus containing the cloned gene for 1 hr at room temperature. Infected Sf21 cells were grown for 72 hrs and the medium was recovered, and the MMP was purified. MMP-2 (GENEBANK No. XM—048244) and MMP-9 (GENEBANK No. XM—009491) were recovered from a gelatin-sepharose affinity column (Sigma, G5384) by eluting with 5% DMSO-containing buffer. MMP-1 (GENEBANK NO. XM—040735) and MMP-13 (GENEBANK NO. NM_002427) were purified with SP-sepharose column (Pharmacia, 17-02729-01) chromatography.
(§3) In order to investigate MMP inhibition by chalcone or its derivatives, MMP enzyme activity was assayed by a spectrofluorometric method using Perkin-Elmer LS50B.
(§4) Purified MMP-1, MMP-2, MMP-9 and MMP-13 were used after activation with 1 mM APMA before assay.
(§5) The substrate for MMP-1 was 2,4-dinitrophenyl-Pro-Leu-Ala-Leu-Trp-Ala-Arg-OH (Calbiochem). 2,4-dinitrophenyl-Pro-Leu-Met-Trp-Ser-Arg-OH (Calbiochem) was used for MMP-2 and MMP-9 activity assay. As a substrate for MMP-13, MCA-Pro-Cha-Gly-Nva-His-Ala-Dpa-NH2 (Calbiochem) was used [MCA=methyl coumarylamide; Cha=L-cyclohexylalanine; Nva=L-norvaline; Dpa=3-(2,4-dinitrophenyl)-L-2,3-diaminoproprionic acid].
(§6) As a control, 2 Ml of reaction buffer (50 mM Tricine, pH 7.5, 10 mM CaCl2, 200 mM NaCl) comprising DMSO, 10 nM of enzyme and 10 μM of substrate was prepared in a cuvette. Fluorescence intensity was measured for 5-10 min at room temperature with a spectrofluorometer.
(§7) 50 μM Chalcone or its derivatives were added to a reaction buffer containing a substrate and enzyme, and fluorescence intensity was measured in the same manner.

MMP-2 = target: T2, MMP-2 (Homo sapiens, UniProt P08253); test: MMP-2 spectrofluorometric enzyme activity assay; type: biochemical; settings: 50 μM compound
T2 construct: made in house; host or cells: Sf21 insect cells, baculovirus (pBlueBac4.5)
T2 sequence (P08253 110-660): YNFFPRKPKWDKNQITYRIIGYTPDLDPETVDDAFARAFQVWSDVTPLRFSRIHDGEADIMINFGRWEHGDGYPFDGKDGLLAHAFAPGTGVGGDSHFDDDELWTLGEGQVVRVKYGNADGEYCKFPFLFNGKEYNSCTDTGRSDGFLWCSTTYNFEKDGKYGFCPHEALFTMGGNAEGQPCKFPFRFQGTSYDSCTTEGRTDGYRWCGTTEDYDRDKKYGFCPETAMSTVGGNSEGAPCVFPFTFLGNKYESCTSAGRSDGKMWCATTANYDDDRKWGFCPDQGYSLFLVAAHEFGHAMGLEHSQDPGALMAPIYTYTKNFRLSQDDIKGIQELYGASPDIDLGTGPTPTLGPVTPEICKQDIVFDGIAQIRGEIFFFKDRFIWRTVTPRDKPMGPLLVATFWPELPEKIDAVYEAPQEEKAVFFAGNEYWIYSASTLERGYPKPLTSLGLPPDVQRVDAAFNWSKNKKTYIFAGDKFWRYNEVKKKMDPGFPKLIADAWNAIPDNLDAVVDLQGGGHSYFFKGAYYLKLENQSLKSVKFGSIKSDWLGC
Protocol: as §1, §2, §3, §4, §5, §6, §7

[1] = test system: human umbilical vein endothelial cells (HUVECs); test: Tube formation of HUVEC on Matrigel; type: cell-based; settings: 50 μM, 8-16 hrs
Description: The effect of chalcone or its derivatives on human endothelial cells was investigated to evaluate the biological effect of chalcones as MMP inhibitors. Since MMPs are responsible for the degradation of extracellular matrix, chalcone or its derivatives can inhibit the formation of tubular network of vessel, which represent migration and differentiation of endothelial cell. Blood vessel endothelial cells, human umbilical vein endothelial cells (HUVECs), were isolated from freshly obtained cords after cesarean section according to Grants' method (Grants D. S., et al., Cell, 58, pp933-943, 1989). They were identified by immunocytochemical staining with anti-Factor VIII antibody. HUVECs cultured on Matrigel (BD Bioscience, Bedford, Mass., USA) were treated with 50 μM of chalcone or its derivatives, and further incubated at 37° C. for 8-16 hrs. As a control, the procedure was repeated with the solvent of the above compounds.

TPA-induced ear edema = TPA-induced ear edema model; type: in vivo, ICR mouse; settings: topical 5% in acetone (indomethacin 0.5 mg/ear), 4 hours after TPA; for Δ Ear thickness (um ± S.D): TPA control 176 ± 35
Protocol: To observe the anti-inflammatory effects of chalcone or its derivatives edema was induced in the ear by topical application of 10 ul of TPA (Tetradecanoylphorbol acetate) in acetone (2.5 ug/ear) to both the inner and outer surface of one ear of each 6-week-old ICR mouse. 5% of Chalcone or its derivatives diluted with acetone were applied separately to each ear topically immediately after TPA. The reference drug, indomethacin (0.5 mg/ear), was administered as a positive control. Ear thickness was measured before and 4 hours after treatment with the irritant using a micrometer (Mitutoyo Co.). Ear thickness was expressed as the mean of the difference between thickness before and after challenge. Inhibition ratio percentage of edema was expressed as the reduction in thickness with respect to the control treated only with TPA. As shown in FIG. 6 and Table 2, chalcone or its derivatives suppressed the TPA-induced ear edema.

| Structure (SMILES) | MMP-13 inhibition (% inhibition) (MMP-13) | MMP-2 inhibition (% inhibition) (MMP-2) | Tubular (microvascular) network formation of HUVEC [1] | Inhibition ratio (%) of ear edema (TPA-induced ear edema) | Δ Ear thickness (um ± S.D) (TPA-induced ear edema) |
| --- | --- | --- | --- | --- | --- |
| COc1ccc(C(=O)C=Cc2ccccc2)c(OC)c1 [2′,4′-dimethoxy chalcone, 2′,4′-dimethoxychalcone (1-(2,4-dimethoxyphenyl)-3-phenylprophenone)] | 83.4 % inhibition | 92.5 % inhibition |  |  |  |
| COc1ccc(C(=O)C=Cc2ccccc2)cc1 [4′-methoxy chalcone, 4′-methoxychalcone (1-(4-methoxyphenyl)-3-phenylprophenone)] | 86.8 % inhibition | 99.1 % inhibition | microvascular network was disconnected | 40.9% | 104 ± 21 um |
| COc1ccc2c(c1)c(CC(=O)O)c(C)n2C(=O)c1ccc(Cl)cc1 [Indomethacin, reference compound] |  |  |  | 72.7% | 48 ± 25 um |
| O=C(C=Cc1ccc(O)cc1)c1ccccc1 [4-hydroxy chalcone, 4-hydroxychalcone (1-phenyl-3-(4-hydroxyphenyl)prophenone)] | 94.5 % inhibition | 95.9 % inhibition |  |  |  |
| O=C(CCc1ccc(O)cc1)c1c(O)cc(O)cc1O [Phloretin] | 77.0 % inhibition | 87.2 % inhibition |  |  |  |
| COc1ccc(C=CC(=O)c2ccccc2)cc1 [4-methoxy chalcone, 4-methoxychalcone (1-phenyl-3-(4-methoxyphenyl)prophenone)] | 83.9 % inhibition | 92.7 % inhibition |  | 56.2% | 77 ± 19 um |
| O=C(C=Cc1ccccc1O)c1ccccc1 [2-hydroxy chalcone, 2-hydroxychalcone (1-phenyl-3-(2-hydroxyphenyl)prophenone)] | 89.9 % inhibition | 90.4 % inhibition |  | 58.0% | 74 ± 20 um |
